Data from patent publication US10376476B2, “Panicein compounds, compositions and uses thereof” (CENTRE NATIONAL DE LA RECHERCHE SCIENTIFIQUE, priority 2014, dated 2019).

Key:
[1] = target: T1, wild-type Patched (hPtc) expressed in yeasts (Homo sapiens, UniProt Q13635); test: Doxorubicin efflux from yeasts (intracellular dxr fluorescence); type: cell-based; settings: for Efflux (%) of dxr: WT-hPtc-yeasts, 10 μM paniceins, 10 min, 5 mM 2-deoxy-D-glucose; for dxr fluorescence in hPtc-expressing yeasts after efflux: 10 μM paniceins during efflux, contrary to control yeasts
T1 construct: MAP; expressed in transfected cells; host or cells: Saccharomyces cerevisiae K699
T1 sequence (Q13635 1-1447): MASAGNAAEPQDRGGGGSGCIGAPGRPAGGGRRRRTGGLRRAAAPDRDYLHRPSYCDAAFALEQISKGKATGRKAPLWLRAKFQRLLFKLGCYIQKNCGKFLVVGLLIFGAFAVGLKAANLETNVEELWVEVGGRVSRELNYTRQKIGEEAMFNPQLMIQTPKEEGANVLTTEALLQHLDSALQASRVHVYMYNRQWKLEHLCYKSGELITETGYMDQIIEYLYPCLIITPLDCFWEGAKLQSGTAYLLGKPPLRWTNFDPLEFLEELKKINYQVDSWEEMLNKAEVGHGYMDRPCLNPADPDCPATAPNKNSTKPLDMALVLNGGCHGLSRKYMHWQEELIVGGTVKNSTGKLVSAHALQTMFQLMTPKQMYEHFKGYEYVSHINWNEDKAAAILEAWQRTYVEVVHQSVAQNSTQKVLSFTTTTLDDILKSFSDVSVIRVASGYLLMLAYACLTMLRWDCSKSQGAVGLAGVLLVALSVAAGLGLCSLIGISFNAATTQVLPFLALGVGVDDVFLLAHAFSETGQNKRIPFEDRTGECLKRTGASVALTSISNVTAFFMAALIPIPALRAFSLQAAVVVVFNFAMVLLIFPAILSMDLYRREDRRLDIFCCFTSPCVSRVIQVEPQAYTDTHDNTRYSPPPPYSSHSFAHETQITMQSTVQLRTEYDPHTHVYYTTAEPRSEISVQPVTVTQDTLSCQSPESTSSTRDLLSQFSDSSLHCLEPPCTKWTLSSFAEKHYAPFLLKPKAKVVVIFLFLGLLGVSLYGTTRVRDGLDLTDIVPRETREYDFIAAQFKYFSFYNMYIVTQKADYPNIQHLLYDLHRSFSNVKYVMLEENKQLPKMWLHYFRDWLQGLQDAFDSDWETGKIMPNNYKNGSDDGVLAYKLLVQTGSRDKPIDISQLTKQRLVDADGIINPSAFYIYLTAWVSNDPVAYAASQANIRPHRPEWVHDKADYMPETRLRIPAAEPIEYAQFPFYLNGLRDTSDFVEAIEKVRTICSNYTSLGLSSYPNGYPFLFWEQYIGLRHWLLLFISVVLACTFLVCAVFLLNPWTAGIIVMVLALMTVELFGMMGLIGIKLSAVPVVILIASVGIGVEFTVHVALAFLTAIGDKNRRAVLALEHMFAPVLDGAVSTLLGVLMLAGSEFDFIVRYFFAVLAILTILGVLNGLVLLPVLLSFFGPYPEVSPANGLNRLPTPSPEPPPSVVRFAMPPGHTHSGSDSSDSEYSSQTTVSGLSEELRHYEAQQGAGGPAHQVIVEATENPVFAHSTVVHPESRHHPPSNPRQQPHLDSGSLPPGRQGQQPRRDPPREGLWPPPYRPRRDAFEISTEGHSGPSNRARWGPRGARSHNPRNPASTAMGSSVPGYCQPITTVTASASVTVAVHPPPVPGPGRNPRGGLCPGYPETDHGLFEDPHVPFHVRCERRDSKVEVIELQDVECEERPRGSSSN
Description: (§1) A. Compound P5 inhibits doxorubicin efflux from melanoma cells MeWo and A375. Cells were grown on cover-slips, incubated for 2 hour at 37° C. with 10 μM doxorubicin and quickly rinsed with phosphate buffer (pH 7.4). One cover-slip of each cell line was immediately fixed for doxorubicin charge control. The other cover-slips were incubated with buffer supplemented with DMSO or 10 μM of compound P5 30 min under gentle shaking and immediately fixed. Dxr intracellular fluorescence was visualized by epifluorescence and analyzed using Image J software on more than 30 cells of 3 different fields for each condition. The results were analyzed using the Student t test in which significance is attained at P<0.05 (**: P<0.005, ***: P<0.0005). B. Paniceins inhibit doxorubicin efflux from Patched-expressing yeasts. Yeasts expressing wild-type Patched (hPtc, in black), mutant Patched G509VD513Y (hPtcVXXXY, in grey), and control yeasts (in white) were incubated in buffer supplemented with 5 mM of 2-deoxy-D-glucose and 10 μM dxr for 2 hours at 4° C. After centrifugation and supernatant removing, one sample was immediately fixed for charge control and the other samples were resuspended in buffer containing 5 mM of 2-deoxy-D-glucose supplemented with DMSO or 10 μM of paniceins 10 minutes at 25° C. with gentle shaking. After centrifugation and supernatant removing, samples were fixed and deposited on coverslips for epifluorescence microscopy observation. Dxr intracellular fluorescence quantification was carried out using Image J software on more than 30 yeasts on 3 different fields for each condition. The results were analyzed using the Student t test in which significance is attained at P<0.05 (*).
On yeasts: Yeasts expressing Patched (hPtc), mutant Patched (hPtcG509VD513Y), or control yeasts were washed with cold water, resuspended at an OD600 of 10 in Hepes-NaOH buffer (pH 7.0) supplemented with 5 mM of 2-deoxy-D-glucose, and incubated with 10 μM doxorubicin for 2 hours at 4° C. in the cold room on a rotating wheel protected from light. Yeasts were centrifuged and the supernatant was removed. One sample was immediately fixed with 4% paraformaldehyde for doxorubicin loading control. The other samples were resuspended in Hepes-NaOH buffer (pH 7.0) containing 5 mM of 2-deoxy-D-glucose supplemented with DMSO or 10 μM of paniceins, and incubated 10 minutes at 20° C. with gentle shaking in a Benchmark Multi-therm shaker protected from light. Samples were centrifuged for 1 minute at 18,000 g, supernatants were removed and yeasts were fixed with 4% paraformaldehyde. 10 μL of each sample were deposited on a coverslip and observed by epifluorescence microscopy using an objective 63x and filters for Alexa 594. Quantification of doxorubicin intracellular fluorescence was carried out using Image J software on more than 30 yeasts on 3 different fields for each condition. The results were analyzed using the Student t test in which significance is attained at P <0.05.
In order to see if Paniceins inhibit dxr efflux through Patched inhibition, inventors compared dxr efflux on yeasts over-expressing human Patched and control yeasts. After loading with dxr, yeasts were centrifuged and fixed for dxr loading control (LC), or resuspended in buffer supplemented with DMSO or paniceins for efflux measurements. After 10 min a 20° C., yeasts were collected, fixed and deposited on cover-slips. 2-deoxy-D-glucose was added in buffer during loading and efflux in order to inhibit ATP-binding cassette (ABC) transporters. Dxr fluorescence intensity of at least 30 yeasts was measured for each experiment. FIGS. 6A and 12A show the mean fluorescence intensity of 3 independent experiments. […] This was confirmed using yeasts over-expressing Patched mutant VXXXY. […] Yeasts over-expressing hPtcVXXXY are less resistance to growth inhibition by dxr than yeasts over-expressing wild-type hPtc (Bidet et al., 2012).

control yeasts = test: as above; type: cell-based, Saccharomyces cerevisiae; settings: 10 μM paniceins, 10 min, 5 mM 2-deoxy-D-glucose
Description: as §1
On yeasts: Yeasts expressing Patched (hPtc), mutant Patched (hPtcG509VD513Y), or control yeasts were washed with cold water, resuspended at an OD600 of 10 in Hepes-NaOH buffer (pH 7.0) supplemented with 5 mM of 2-deoxy-D-glucose, and incubated with 10 μM doxorubicin for 2 hours at 4° C. in the cold room on a rotating wheel protected from light. Yeasts were centrifuged and the supernatant was removed. One sample was immediately fixed with 4% paraformaldehyde for doxorubicin loading control. […] Quantification of doxorubicin intracellular fluorescence was carried out using Image J software on more than 30 yeasts on 3 different fields for each condition. The results were analyzed using the Student t test in which significance is attained at P <0.05.
In order to see if Paniceins inhibit dxr efflux through Patched inhibition, inventors compared dxr efflux on yeasts over-expressing human Patched and control yeasts. […] Dxr fluorescence intensity of at least 30 yeasts was measured for each experiment. FIGS. 6A and 12A show the mean fluorescence intensity of 3 independent experiments. […]

Row | SMILES | Efflux (%) of dxr [1] [%] | Efflux (%) of dxr (control yeasts) [%] | dxr fluorescence in hPtc-expressing yeasts after efflux [1]
1 | C/C(=C\Cc1cc(O)ccc1O)CCc1c(C)c(O)c(O)c(C=O)c1C [P2, Panicein C] | 51 | 20 | 
2 | C/C(=C\Cc1cc(O)ccc1O)CCc1c(C)cc(O)c(C=O)c1C [P3, Panicein B3] | 46 | 25 | 
3 | Cc1cc(O)c(C=O)c(C)c1CCC1(C)C=Cc2cc(O)ccc2O1 (stereo not shown) [P4, Panicein B2] | 46 | 29 | significantly higher amounts of dxr fluorescence
4 | COc1cc(C)c(CC/C(C)=C/Cc2cc(O)ccc2O)c(C)c1C [P5, Panicein A hydroquinone] | 40 | 39 | significantly higher amounts of dxr fluorescence
